In ChEMBL document CHEMBL5370535, “Thiazolyl hydrazineylidenyl indolones as unique potential multitargeting broad-spectrum antimicrobial agents” (Eur J Med Chem, 2023):
≈ marks a conversion by molar mass, not a printed value.

What was measured:
Type in all cases: functional
[1] = system: Candida tropicalis; experiment: Antifungal activity against Candida tropicalis assessed as inhibition of fungal growth incubated for 24 hrs by CLSI based two serial dilution assay
[2] = system: Staphylococcus aureus; experiment: Antibacterial activity against Staphylococcus aureus 25923 assessed as bacterial growth inhibition incubated for 24 hrs by CLSI based two serial dilution assay
[3] = system: Acinetobacter baumannii; experiment: Antibacterial activity against Acinetobacter baumannii assessed as bacterial growth inhibition incubated for 24 hrs by CLSI based two serial dilution assay
[4] = system: Candida albicans; experiment: Antifungal activity against Candida albicans ATCC 90023 assessed as inhibition of fungal growth incubated for 24 hrs by CLSI based two serial dilution assay
[5] = system: Candida albicans; experiment: Antifungal activity against Candida albicans assessed as inhibition of fungal growth incubated for 24 hrs by CLSI based two serial dilution assay
[6] = system: Staphylococcus aureus; experiment: Antibacterial activity against methicillin-resistant Staphylococcus aureus assessed as bacterial growth inhibition incubated for 24 hrs by CLSI based two serial dilution assay
[7] = system: Aspergillus fumigatus; experiment: Antifungal activity against Aspergillus fumigatus assessed as inhibition of fungal growth incubated for 24 hrs by CLSI based two serial dilution assay
[8] = system: Pseudomonas aeruginosa; experiment: Antibacterial activity against Pseudomonas aeruginosa assessed as bacterial growth inhibition incubated for 24 hrs by CLSI based two serial dilution assay
[9] = system: Enterococcus faecalis; experiment: Antibacterial activity against Enterococcus faecalis assessed as bacterial growth inhibition incubated for 24 hrs by CLSI based two serial dilution assay
[10] = system: Klebsiella pneumoniae; experiment: Antibacterial activity against Klebsiella pneumoniae assessed as bacterial growth inhibition incubated for 24 hrs by CLSI based two serial dilution assay
[11] = system: Candida parapsilosis; experiment: Antifungal activity against Candida parapsilosis ATCC 22019 assessed as inhibition of fungal growth incubated for 24 hrs by CLSI based two serial dilution assay; conditions: Lodderomyces parapsilosis
[12] = system: Pseudomonas aeruginosa; experiment: Antibacterial activity against Pseudomonas aeruginosa ATCC 27853 assessed as bacterial growth inhibition incubated for 24 hrs by CLSI based two serial dilution assay
[13] = system: Escherichia coli; experiment: Antibacterial activity against Escherichia coli 25922 assessed as bacterial growth inhibition incubated for 24 hrs by CLSI based two serial dilution assay
[14] = system: Escherichia coli; experiment: Antibacterial activity against Escherichia coli assessed as bacterial growth inhibition incubated for 24 hrs by CLSI based two serial dilution assay
[15] = system: Staphylococcus aureus; experiment: Antibacterial activity against Staphylococcus aureus assessed as bacterial growth inhibition incubated for 24 hrs by CLSI based two serial dilution assay
[16] = system: Staphylococcus aureus; experiment: Antibacterial activity against Staphylococcus aureus 29213 assessed as bacterial growth inhibition incubated for 24 hrs by CLSI based two serial dilution assay

SMILES | MIC [1] | MIC [2] | MIC [3] | MIC [4] | MIC [5] | MIC [6] | MIC [7] | MIC [8] | MIC [9] | MIC [10] | MIC [11] | MIC [12] | MIC [13] | MIC [14] | MIC [15] | MIC [16]
CCCCN1C(=O)/C(=N\Nc2nccs2)c2cccc(F)c21 | 1 µM (≈ 0.318 µg/mL) | 1 µM (≈ 0.318 µg/mL) | 0.5 µM (≈ 0.159 µg/mL) | 4 µM (≈ 1.27 µg/mL) | 32 µM (≈ 10.2 µg/mL) | 4 µM (≈ 1.27 µg/mL) | 256 µM (≈ 81.5 µg/mL) | 1 µM (≈ 0.318 µg/mL) | 2 µM (≈ 0.637 µg/mL) | 1 µM (≈ 0.318 µg/mL) | 4 µM (≈ 1.27 µg/mL) | 1 µM (≈ 0.318 µg/mL) | 1 µM (≈ 0.318 µg/mL) | 4 µM (≈ 1.27 µg/mL) | 16 µM (≈ 5.09 µg/mL) | 16 µM (≈ 5.09 µg/mL)
CCCCN1C(=O)/C(=N\Nc2nccs2)c2c(Cl)cccc21 | 128 µM (≈ 42.9 µg/mL) | 512 µM (≈ 171 µg/mL) | 256 µM (≈ 85.7 µg/mL) | 512 µM (≈ 171 µg/mL) | 256 µM (≈ 85.7 µg/mL) | 256 µM (≈ 85.7 µg/mL) | 256 µM (≈ 85.7 µg/mL) | 1 µM (≈ 0.335 µg/mL) | 128 µM (≈ 42.9 µg/mL) | 1 µM (≈ 0.335 µg/mL) | 16 µM (≈ 5.36 µg/mL) | 128 µM (≈ 42.9 µg/mL) | 512 µM (≈ 171 µg/mL) | 256 µM (≈ 85.7 µg/mL) | 512 µM (≈ 171 µg/mL) | 1 µM (≈ 0.335 µg/mL)
CCCCN1C(=O)/C(=N\Nc2nccs2)c2cc(Cl)ccc21 | 16 µM (≈ 5.36 µg/mL) | 1 µM (≈ 0.335 µg/mL) | 1 µM (≈ 0.335 µg/mL) | 2 µM (≈ 0.67 µg/mL) | 0.5 µM (≈ 0.167 µg/mL) | 1 µM (≈ 0.335 µg/mL) | 4 µM (≈ 1.34 µg/mL) | 0.5 µM (≈ 0.167 µg/mL) | 32 µM (≈ 10.7 µg/mL) | 0.5 µM (≈ 0.167 µg/mL) | 0.5 µM (≈ 0.167 µg/mL) | 0.5 µM (≈ 0.167 µg/mL) | 0.5 µM (≈ 0.167 µg/mL) | 1 µM (≈ 0.335 µg/mL) | 1 µM (≈ 0.335 µg/mL) | 1 µM (≈ 0.335 µg/mL)
CCCCN1C(=O)/C(=N\Nc2nccs2)c2ccc(F)cc21 | 32 µM (≈ 10.2 µg/mL) | 4 µM (≈ 1.27 µg/mL) | 1 µM (≈ 0.318 µg/mL) | 4 µM (≈ 1.27 µg/mL) | 2 µM (≈ 0.637 µg/mL) | 4 µM (≈ 1.27 µg/mL) | 2 µM (≈ 0.637 µg/mL) | 1 µM (≈ 0.318 µg/mL) | 32 µM (≈ 10.2 µg/mL) | 2 µM (≈ 0.637 µg/mL) | 1 µM (≈ 0.318 µg/mL) | 2 µM (≈ 0.637 µg/mL) | 4 µM (≈ 1.27 µg/mL) | 2 µM (≈ 0.637 µg/mL) | 4 µM (≈ 1.27 µg/mL) | 4 µM (≈ 1.27 µg/mL)
CCCCN1C(=O)/C(=N\Nc2nc(-c3ccc(F)cc3F)cs2)c2ccccc21 | 512 µM (≈ 211 µg/mL) | 512 µM (≈ 211 µg/mL) | 512 µM (≈ 211 µg/mL) | 512 µM (≈ 211 µg/mL) | 512 µM (≈ 211 µg/mL) | 512 µM (≈ 211 µg/mL) | 512 µM (≈ 211 µg/mL) | 2 µM (≈ 0.825 µg/mL) | 512 µM (≈ 211 µg/mL) | 512 µM (≈ 211 µg/mL) | 512 µM (≈ 211 µg/mL) | 512 µM (≈ 211 µg/mL) | 512 µM (≈ 211 µg/mL) | 512 µM (≈ 211 µg/mL) | 4 µM (≈ 1.65 µg/mL) | 4 µM (≈ 1.65 µg/mL)
O=C1/C(=N\Nc2nccs2)c2ccccc2N1Cc1cccc(Cl)c1 | 64 µM (≈ 23.6 µg/mL) | 8 µM (≈ 2.95 µg/mL) | 256 µM (≈ 94.4 µg/mL) | 128 µM (≈ 47.2 µg/mL) | 256 µM (≈ 94.4 µg/mL) | 16 µM (≈ 5.9 µg/mL) | 16 µM (≈ 5.9 µg/mL) | 256 µM (≈ 94.4 µg/mL) | 32 µM (≈ 11.8 µg/mL) | 256 µM (≈ 94.4 µg/mL) | 128 µM (≈ 47.2 µg/mL) | 512 µM (≈ 189 µg/mL) | 256 µM (≈ 94.4 µg/mL) | 128 µM (≈ 47.2 µg/mL) | 32 µM (≈ 11.8 µg/mL) | 16 µM (≈ 5.9 µg/mL)
CCCCN1C(=O)/C(=N\Nc2nccs2)c2cc([N+](=O)[O-])ccc21 | 512 µM (≈ 177 µg/mL) | 512 µM (≈ 177 µg/mL) | 0.5 µM (≈ 0.173 µg/mL) | 512 µM (≈ 177 µg/mL) | 512 µM (≈ 177 µg/mL) | 512 µM (≈ 177 µg/mL) | 512 µM (≈ 177 µg/mL) | 512 µM (≈ 177 µg/mL) | 512 µM (≈ 177 µg/mL) | 512 µM (≈ 177 µg/mL) | 512 µM (≈ 177 µg/mL) | 512 µM (≈ 177 µg/mL) | 512 µM (≈ 177 µg/mL) | 512 µM (≈ 177 µg/mL) | 512 µM (≈ 177 µg/mL) | 512 µM (≈ 177 µg/mL)
O=C1/C(=N\Nc2nccs2)c2ccccc2N1Cc1ccccc1Cl | 16 µM (≈ 5.9 µg/mL) | 64 µM (≈ 23.6 µg/mL) | 512 µM (≈ 189 µg/mL) | 4 µM (≈ 1.48 µg/mL) | 16 µM (≈ 5.9 µg/mL) | 8 µM (≈ 2.95 µg/mL) | 16 µM (≈ 5.9 µg/mL) | 32 µM (≈ 11.8 µg/mL) | 32 µM (≈ 11.8 µg/mL) | 512 µM (≈ 189 µg/mL) | 4 µM (≈ 1.48 µg/mL) | 512 µM (≈ 189 µg/mL) | 256 µM (≈ 94.4 µg/mL) | 256 µM (≈ 94.4 µg/mL) | 8 µM (≈ 2.95 µg/mL) | 64 µM (≈ 23.6 µg/mL)
CCCCN1C(=O)/C(=N\Nc2nccs2)c2ccc(Cl)cc21 | 1 µM (≈ 0.335 µg/mL) | 0.5 µM (≈ 0.167 µg/mL) | 0.5 µM (≈ 0.167 µg/mL) | 2 µM (≈ 0.67 µg/mL) | 0.5 µM (≈ 0.167 µg/mL) | 0.5 µM (≈ 0.167 µg/mL) | 1 µM (≈ 0.335 µg/mL) | 0.5 µM (≈ 0.167 µg/mL) | 2 µM (≈ 0.67 µg/mL) | 0.5 µM (≈ 0.167 µg/mL) | 0.5 µM (≈ 0.167 µg/mL) | 4 µM (≈ 1.34 µg/mL) | 4 µM (≈ 1.34 µg/mL) | 1 µM (≈ 0.335 µg/mL) | 1 µM (≈ 0.335 µg/mL) | 4 µM (≈ 1.34 µg/mL)
